Our source for the viability, T/C values is PubChem BioAssay AID1963831 (Molecular Pharmacology Branch, DTP, NCI, 2024).
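Note: spheroids exposed to compounds for seven days; 100% = DMSO vehicle control viability.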

For one test, the system named is 889142-216-R-J1-PDC complex spheroid viability. The experiment in a line: Anticancer human tumor 889142-216-R-J1-PDC patient-derived bladder carcinoma cell line growth inhibition [POLQ]. To be noted: second compound 3.16 µM; first compound 0.1 µM; hits give low values. Summed up:
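PDC + HUVEC + MSC complex spheroids; POLQ inhibitors ± partner drugs; top conc. at/near clinical Cmax, else 10 microM (SN-38 1 microM), half-log dilutions; 37 degrees C, 5% CO2.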
For `CCc1cc2c(N3CCc4c(cc(Cn5ccnc5)cc4-c4cn(C)nc4C(F)(F)F)C3=O)cc(C)nc2c(OC)n1` + Nc1ccc(C#CCN(C(=O)Cc2ncc(C(F)(F)F)cc2C(F)(F)F)c2ccc(F)cc2)nn1, the viability, T/C was 125%.
The same measure, in the same setting: the result for `O=C(Nc1ccc(O)c(NS(=O)(=O)c2ccc(F)cc2)c1)c1ccc(-c2ccccc2)cc1` + Nc1ccc(C#CCN(C(=O)Cc2ncc(C(F)(F)F)cc2C(F)(F)F)c2ccc(F)cc2)nn1 reads 83.4%.

Still in this test, the particulars now being: second compound 3.16 µM; first compound 0.316 µM; hits give low values.
Regarding `C#Cc1c(F)ccc2cc(O)cc(-c3ncc4c(N5CC6CCC(C5)N6)nc(OCC56CCCN5CC(F)C6)nc4c3F)c12` (configuration not stated) + Nc1ccc(C#CCN(C(=O)Cc2ncc(C(F)(F)F)cc2C(F)(F)F)c2ccc(F)cc2)nn1, the viability, T/C is 90.3%.
On the same count and under the same terms, the result for `CCc1cc2c(N3CCc4c(cc(Cn5ccnc5)cc4-c4cn(C)nc4C(F)(F)F)C3=O)cc(C)nc2c(OC)n1` + Nc1ccc(C#CCN(C(=O)Cc2ncc(C(F)(F)F)cc2C(F)(F)F)c2ccc(F)cc2)nn1 reads 119%; that for `O=C(Nc1ccc(O)c(NS(=O)(=O)c2ccc(F)cc2)c1)c1ccc(-c2ccccc2)cc1` + Nc1ccc(C#CCN(C(=O)Cc2ncc(C(F)(F)F)cc2C(F)(F)F)c2ccc(F)cc2)nn1, 135%.

Staying with this test, now noted: second compound 3.16 µM; first compound 1 µM; hits give low values.
Regarding `C#Cc1c(F)ccc2cc(O)cc(-c3ncc4c(N5CC6CCC(C5)N6)nc(OCC56CCCN5CC(F)C6)nc4c3F)c12` (configuration not stated) + Nc1ccc(C#CCN(C(=O)Cc2ncc(C(F)(F)F)cc2C(F)(F)F)c2ccc(F)cc2)nn1, the viability, T/C was 131%.
`CCc1cc2c(N3CCc4c(cc(Cn5ccnc5)cc4-c4cn(C)nc4C(F)(F)F)C3=O)cc(C)nc2c(OC)n1` + Nc1ccc(C#CCN(C(=O)Cc2ncc(C(F)(F)F)cc2C(F)(F)F)c2ccc(F)cc2)nn1: the viability, T/C is 114%.
For `O=C(Nc1ccc(O)c(NS(=O)(=O)c2ccc(F)cc2)c1)c1ccc(-c2ccccc2)cc1` + Nc1ccc(C#CCN(C(=O)Cc2ncc(C(F)(F)F)cc2C(F)(F)F)c2ccc(F)cc2)nn1, the viability, T/C was 139%.

The same test, now with this note: second compound 3.16 µM; first compound 3.16 µM; hits give low values.
`C#Cc1c(F)ccc2cc(O)cc(-c3ncc4c(N5CC6CCC(C5)N6)nc(OCC56CCCN5CC(F)C6)nc4c3F)c12` (configuration not stated) + Nc1ccc(C#CCN(C(=O)Cc2ncc(C(F)(F)F)cc2C(F)(F)F)c2ccc(F)cc2)nn1: the viability, T/C is 70.3%.
With `CCc1cc2c(N3CCc4c(cc(Cn5ccnc5)cc4-c4cn(C)nc4C(F)(F)F)C3=O)cc(C)nc2c(OC)n1` + Nc1ccc(C#CCN(C(=O)Cc2ncc(C(F)(F)F)cc2C(F)(F)F)c2ccc(F)cc2)nn1, the viability, T/C is 116%.
Same read-out and setting: under `O=C(Nc1ccc(O)c(NS(=O)(=O)c2ccc(F)cc2)c1)c1ccc(-c2ccccc2)cc1` + Nc1ccc(C#CCN(C(=O)Cc2ncc(C(F)(F)F)cc2C(F)(F)F)c2ccc(F)cc2)nn1 stands 127%.

Still in this test, the particulars now being: second compound 3.16 µM; first compound 10 µM; hits give low values.
Regarding `C#Cc1c(F)ccc2cc(O)cc(-c3ncc4c(N5CC6CCC(C5)N6)nc(OCC56CCCN5CC(F)C6)nc4c3F)c12` (configuration not stated) + Nc1ccc(C#CCN(C(=O)Cc2ncc(C(F)(F)F)cc2C(F)(F)F)c2ccc(F)cc2)nn1, the viability, T/C is 63.8%.
Take `CCc1cc2c(N3CCc4c(cc(Cn5ccnc5)cc4-c4cn(C)nc4C(F)(F)F)C3=O)cc(C)nc2c(OC)n1` + Nc1ccc(C#CCN(C(=O)Cc2ncc(C(F)(F)F)cc2C(F)(F)F)c2ccc(F)cc2)nn1: the viability, T/C is 97.3%.
Still for that read-out and setting: under `O=C(Nc1ccc(O)c(NS(=O)(=O)c2ccc(F)cc2)c1)c1ccc(-c2ccccc2)cc1` + Nc1ccc(C#CCN(C(=O)Cc2ncc(C(F)(F)F)cc2C(F)(F)F)c2ccc(F)cc2)nn1 stands 64.1%.

Still in this test, the particulars now being: second compound 10 µM; first compound 0.0316 µM; hits give low values.
`C#Cc1c(F)ccc2cc(O)cc(-c3ncc4c(N5CC6CCC(C5)N6)nc(OCC56CCCN5CC(F)C6)nc4c3F)c12` (configuration not stated) + Nc1ccc(C#CCN(C(=O)Cc2ncc(C(F)(F)F)cc2C(F)(F)F)c2ccc(F)cc2)nn1: the viability, T/C was 120%.
As for `CCc1cc2c(N3CCc4c(cc(Cn5ccnc5)cc4-c4cn(C)nc4C(F)(F)F)C3=O)cc(C)nc2c(OC)n1` + Nc1ccc(C#CCN(C(=O)Cc2ncc(C(F)(F)F)cc2C(F)(F)F)c2ccc(F)cc2)nn1, the viability, T/C is 97.8%.
Same read-out and setting: the result for `O=C(Nc1ccc(O)c(NS(=O)(=O)c2ccc(F)cc2)c1)c1ccc(-c2ccccc2)cc1` + Nc1ccc(C#CCN(C(=O)Cc2ncc(C(F)(F)F)cc2C(F)(F)F)c2ccc(F)cc2)nn1 reads 110%.

Still in this test, the particulars now being: second compound 10 µM; first compound 0.1 µM; hits give low values.
For `C#Cc1c(F)ccc2cc(O)cc(-c3ncc4c(N5CC6CCC(C5)N6)nc(OCC56CCCN5CC(F)C6)nc4c3F)c12` (configuration not stated) + Nc1ccc(C#CCN(C(=O)Cc2ncc(C(F)(F)F)cc2C(F)(F)F)c2ccc(F)cc2)nn1, the viability, T/C was 81.6%.
On the same count and under the same terms, under `CCc1cc2c(N3CCc4c(cc(Cn5ccnc5)cc4-c4cn(C)nc4C(F)(F)F)C3=O)cc(C)nc2c(OC)n1` + Nc1ccc(C#CCN(C(=O)Cc2ncc(C(F)(F)F)cc2C(F)(F)F)c2ccc(F)cc2)nn1 stands 126%; under `O=C(Nc1ccc(O)c(NS(=O)(=O)c2ccc(F)cc2)c1)c1ccc(-c2ccccc2)cc1` + Nc1ccc(C#CCN(C(=O)Cc2ncc(C(F)(F)F)cc2C(F)(F)F)c2ccc(F)cc2)nn1, 88%.

The test is the same for the next values; noted with them: second compound 10 µM; first compound 0.316 µM; hits give low values.
For the molecule `C#Cc1c(F)ccc2cc(O)cc(-c3ncc4c(N5CC6CCC(C5)N6)nc(OCC56CCCN5CC(F)C6)nc4c3F)c12` (configuration not stated) + Nc1ccc(C#CCN(C(=O)Cc2ncc(C(F)(F)F)cc2C(F)(F)F)c2ccc(F)cc2)nn1, the viability, T/C is 108%.
Same read-out and setting: the result for `CCc1cc2c(N3CCc4c(cc(Cn5ccnc5)cc4-c4cn(C)nc4C(F)(F)F)C3=O)cc(C)nc2c(OC)n1` + Nc1ccc(C#CCN(C(=O)Cc2ncc(C(F)(F)F)cc2C(F)(F)F)c2ccc(F)cc2)nn1 reads 112%.
For `O=C(Nc1ccc(O)c(NS(=O)(=O)c2ccc(F)cc2)c1)c1ccc(-c2ccccc2)cc1` + Nc1ccc(C#CCN(C(=O)Cc2ncc(C(F)(F)F)cc2C(F)(F)F)c2ccc(F)cc2)nn1, the viability, T/C is 118%.

Still in this test, the particulars now being: second compound 10 µM; first compound 1 µM; hits give low values.
On to `C#Cc1c(F)ccc2cc(O)cc(-c3ncc4c(N5CC6CCC(C5)N6)nc(OCC56CCCN5CC(F)C6)nc4c3F)c12` (configuration not stated) + Nc1ccc(C#CCN(C(=O)Cc2ncc(C(F)(F)F)cc2C(F)(F)F)c2ccc(F)cc2)nn1, for which the viability, T/C is 75.5%.
Still for that read-out and setting: the result for `CCc1cc2c(N3CCc4c(cc(Cn5ccnc5)cc4-c4cn(C)nc4C(F)(F)F)C3=O)cc(C)nc2c(OC)n1` + Nc1ccc(C#CCN(C(=O)Cc2ncc(C(F)(F)F)cc2C(F)(F)F)c2ccc(F)cc2)nn1 reads 124%.
`O=C(Nc1ccc(O)c(NS(=O)(=O)c2ccc(F)cc2)c1)c1ccc(-c2ccccc2)cc1` + Nc1ccc(C#CCN(C(=O)Cc2ncc(C(F)(F)F)cc2C(F)(F)F)c2ccc(F)cc2)nn1: the viability, T/C is 113%.

Still in this test, the particulars now being: second compound 10 µM; first compound 3.16 µM; hits give low values.
Consider `C#Cc1c(F)ccc2cc(O)cc(-c3ncc4c(N5CC6CCC(C5)N6)nc(OCC56CCCN5CC(F)C6)nc4c3F)c12` (configuration not stated) + Nc1ccc(C#CCN(C(=O)Cc2ncc(C(F)(F)F)cc2C(F)(F)F)c2ccc(F)cc2)nn1, for which the viability, T/C was 90.5%.
The same measure, in the same setting: under `CCc1cc2c(N3CCc4c(cc(Cn5ccnc5)cc4-c4cn(C)nc4C(F)(F)F)C3=O)cc(C)nc2c(OC)n1` + Nc1ccc(C#CCN(C(=O)Cc2ncc(C(F)(F)F)cc2C(F)(F)F)c2ccc(F)cc2)nn1 stands 104%; under `O=C(Nc1ccc(O)c(NS(=O)(=O)c2ccc(F)cc2)c1)c1ccc(-c2ccccc2)cc1` + Nc1ccc(C#CCN(C(=O)Cc2ncc(C(F)(F)F)cc2C(F)(F)F)c2ccc(F)cc2)nn1, 101%.

Still in this test, the particulars now being: second compound 10 µM; first compound 10 µM; hits give low values.
In the case of `C#Cc1c(F)ccc2cc(O)cc(-c3ncc4c(N5CC6CCC(C5)N6)nc(OCC56CCCN5CC(F)C6)nc4c3F)c12` (configuration not stated) + Nc1ccc(C#CCN(C(=O)Cc2ncc(C(F)(F)F)cc2C(F)(F)F)c2ccc(F)cc2)nn1, the viability, T/C is 38.8%.
The same measure, in the same setting: the result for `CCc1cc2c(N3CCc4c(cc(Cn5ccnc5)cc4-c4cn(C)nc4C(F)(F)F)C3=O)cc(C)nc2c(OC)n1` + Nc1ccc(C#CCN(C(=O)Cc2ncc(C(F)(F)F)cc2C(F)(F)F)c2ccc(F)cc2)nn1 reads 93.4%.
Same read-out and setting: the result for `O=C(Nc1ccc(O)c(NS(=O)(=O)c2ccc(F)cc2)c1)c1ccc(-c2ccccc2)cc1` + Nc1ccc(C#CCN(C(=O)Cc2ncc(C(F)(F)F)cc2C(F)(F)F)c2ccc(F)cc2)nn1 reads 81%.

As a reminder, the viability, T/C is the result in the treated group divided by that in the control group, in per cent.
